Experimental data taken from patent US20210236523A1, “P[…] FOR HEADACHE DISORDERS” (priority 2020, published 2021).

Legend:
[1] = tested on: patients with cluster headache; assay: Randomized placebo-controlled study of a 3-dose psilocybin pulse regimen in cluster headache: headache diary; type: in vivo, human; conditions: for effect size for change in weekly cluster attacks: psilocybin vs placebo; for change in the number of weekly cluster attacks / number of weekly cluster attacks: 3-dose pulse 0.143 mg/kg
Text: In this exploratory study, a patient-informed regimen (a low dose of psilocybin (between 1-2 grams dried P. cubensis taken three times, approximately 5 days apart each)) was studied in patients with cluster headache in a controlled, laboratory setting. The information gained from this study serves to (1) verify longstanding anecdotal reports and (2) design larger, more definitive studies examining the safety and efficacy of psilocybin in cluster headache.
(§1) This study was registered on clinicaltrials.gov (NCT02981173) with approvals from the Human Studies Subcommittee of Veterans Affairs Connecticut Healthcare System (VACHS) and the Human Investigations Committee of Yale University School of Medicine. The study was conducted under an approved Investigational New Drug application (#124,874) with the US Food & Drug Administration, under a Schedule 1 license (author DCD). Psilocybin was provided by author NC from the University of Wisconsin. Weight-based capsules of psilocybin 0.143 mg/kg and matching placebo (microcrystalline cellulose; obtained from Fagron (St. Paul, Minn.)) were compounded into identical blue gel capsules by the VACHS Investigational Research Pharmacy for each subject.
Adults (age 21 to 65 years, inclusive) with cluster headache as defined by the International Classification of Headache Disorders III-beta 8 were eligible to participate in this study. Both chronic and episodic cluster headache subtypes were eligible, however certain conditions were required to ensure proper interpretation of the study intervention. For both chronic and episodic subjects, an attack frequency of approximately 1 attack per day or more was required. For episodic subjects, the typical cluster period was required to last approximately 2 months or more and study participation could only take place when at least 6 weeks of the period was anticipated to remain. Excluded medical conditions included, but were not limited to, uncontrolled hypertension, coronary artery disease, cardiac arrhythmia, cerebrovascular disease, and serious central or peripheral nervous system or spinal disease. Excluded psychiatric conditions included, but were not limited to, psychotic or manic disorders in the subject or a first degree relative and substance abuse within the past 3 months. Any prior serious adverse event with psilocybin, LSD, or related compounds (i.e., mescaline) was also exclusionary. Prior exposure to psilocybin or related compounds through recreational or medicinal use or through participation in other research studies was not excluded, although any use in the past 3 months was prohibited. Alcohol use within one week of the first experimental test day was prohibited. Caffeine and nicotine were not restricted. Subjects were required to be off serotonergic antidepressants (selective serotonin reuptake inhibitors, serotonin and norepinephrine reuptake inhibitors, monoamine oxidase inhibitors, tricyclics) for at least 6 weeks and serotonergic antiemetics (i.e., ondansetron) for at least 2 weeks from the first test day. Vasoconstrictive medications (i.e., sumatriptan, pseudoephedrine) could be used during the study period, but not within 5 half-lives of said medication and not within 5 half-lives of psilocybin (15 hours) after each test day. Triptans were also not allowed more than twice weekly.
Subjects were instructed to maintain a headache diary starting 2 weeks before until 8 weeks after the first experimental session. Subjects documented every cluster attack, including date, onset, offset, pain intensity (0-10 visual analog scale (VAS): 0=none, 1=minimal, 5=moderate, 9=severe, 10=worst imaginable). The abortive treatments taken and their effects were also recorded in the diary. Only the 14 days prior to the first experimental session (baseline) and the 56 days after the first experimental session (inclusive) were counted in the final analysis. […]

[2] = tested on: patients with migraine headache; assay: Placebo-controlled cross-over study of a single low oral dose of psilocybin in migraine headache: headache diary burden; type: in vivo, human
Text: The purpose of this exploratory study was to investigate the effects of a single low dose of psilocybin in patients with migraine headache in a controlled experiment. Basic information was gathered to assist in the development of future studies considering the effects and mechanism of action of 5-HT2A receptor compounds in migraine and other headache disorders.
as §1, with “(NCT03341689)” for “(NCT02981173)”, “[microcrystalline” for “(microcrystalline”, “Minn.)]” for “Minn.))”
Adults (age 21 to 65 years, inclusive) free from serious medical or psychiatric disease with migraine headache as defined by the International Classification of Headache Disorders III-beta and with a frequency of migraine attacks of 2 per week or more were eligible to participate in this study. Among the excluded medical conditions were uncontrolled hypertension, coronary artery disease, cardiac arrhythmia, cerebrovascular disease, and serious central or peripheral nervous system or spinal disease (e.g., multiple sclerosis, amyotrophic lateral sclerosis). Psychotic or manic disorders in the subject or a first degree relative was also excluded, as were substance abuse within the past 3 months and any prior serious adverse event with psilocybin, LSD, or related compounds (i.e., mescaline). Prior exposure to psilocybin or related compounds through recreational or medicinal use or through participation in other research studies was not excluded, although any use in the past 3 months was prohibited. Alcohol use within one week of the first experimental test day was prohibited. Caffeine and nicotine were not restricted. Subjects were required to be free from serotonergic antidepressants (selective serotonin reuptake inhibitors, serotonin and norepinephrine reuptake inhibitors, monoamine oxidase inhibitors, tricyclics) for at least 6 weeks, serotonergic antiemetics (i.e., ondansetron) for at least 2 weeks, and vasoconstrictive medications (i.e., pseudoephedrine) for at least 5 half-lives of said medication. Triptans were permitted, but no more than twice weekly and not within 5 half-lives of said triptan before each test day and not within 5 half-lives of psilocybin (15 hours) after each test day.
Subjects were instructed to maintain a headache diary starting two weeks before the first experimental session until two weeks after the second experimental session. Subjects documented every headache attack, migraine (with associated migrainous symptoms) or otherwise (without associated migrainous symptoms; not counted as a migraine attack). Associated symptoms—photophobia (light sensitivity), phonophobia (sound sensitivity), nausea/vomiting—as well as attack-related functional impairment were documented using a 0-3 visual analog scale (VAS): 0=none, 1=mild, 2-moderate, 3=severe. The abortive medications taken and their effects were also recorded in the diary. Only the 14 days prior to the first experimental session (baseline) and the 14 days after each experimental session (inclusive) were counted in the final analysis.
Subjects completed two experimental sessions, separated by at least 14 days, which were conducted in the Neurobiological Studies Unit (NSU) at VACHS. Subjects reported to the NSU at 08:00; urine drug, urine pregnancy (when applicable), and alcohol breathalyzer tests were required to be negative in order to proceed. […]

[3] = of 10 subjects, 14 days after single oral dose 0.143 mg/kg
[4] = single oral dose 0.143 mg/kg, two weeks after dosing

CN(C)CCc1c[nH]c2cccc(OP(=O)(O)O)c12 [psilocybin, 3-(2-dimethylaminoethyl)-1H-indol-4-yl] dihydrogen phosphate]
effect size for change in weekly cluster attacks ([1]; chronic cluster headache subjects, 8 weeks): −1.20 | change in the number of weekly cluster attacks ([1]; chronic cluster headache subjects, across 8 weeks, P=0.080 vs placebo): −6.08 (2.29) | number of weekly cluster attacks ([1]; chronic cluster headache subjects, across 8 weeks, group baseline 8.67 (2.42)): 4.58 (0.77) | change in the number of weekly cluster attacks ([1]; over the first 3 weeks, episodic and chronic combined, P=0.017 vs placebo): −6.03 (2.23) | number of weekly cluster attacks ([1]; over the first 3 weeks, episodic and chronic patients combined, group baseline 9.30 (1.49)): 3.50 (1.12) | effect size for change in weekly cluster attacks ([1]; three weeks): −1.89 | change from baseline in attack-related functional impairment ([2]; 0-3 VAS, single oral dose 0.143 mg/kg, mean (SEM), P=0.0235 vs placebo): −0.96 (0.26) | subjects with no migraine attacks after administration [2, 3]: 2 subjects | subjects with only one migraine attack after administration [2, 3]: 2 subjects | change in weekly migraine days (WMD) from baseline ([2]; single oral dose 0.143 mg/kg, 14 days after dosing, mean (SEM), 10 subjects, P=0.0027 vs placebo): −1.65 (0.39) days/week | time to the second migraine attack after drug administration ([2]; single oral dose 0.143 mg/kg, mean (SEM), 15 days used when no attack, P=0.0119 vs placebo): 10.30 (1.61) days | time to the first migraine attack after drug administration ([2]; single oral dose 0.143 mg/kg, mean (SEM), 15 days used when no attack, P=0.0554 vs placebo): 6.30 (1.88) days | change from baseline in weekly migraine attacks (WMA) ([2]; single oral dose 0.143 mg/kg, mean (SEM), P=0.0039 vs placebo): −1.40 (0.36) attacks/week | change from baseline in pain severity ([2]; single oral dose 0.143 mg/kg, mean (SEM), P=0.0109 vs placebo): −0.70 (0.16) | change from baseline in weekly migraine abortive use ([2]; single oral dose 0.143 mg/kg, mean (SEM), P=0.0140 vs placebo): −0.65 (0.21) abortives/week | percentage of subjects who had 25% reduction in WMD [2, 4]: 80% | percentage of subjects who had 50% reduction in WMD [2, 4]: 50% | percentage of subjects who had 75% reduction in WMD [2, 4]: 30%
